Assay results from patent US10131675B2 (Genentech, Inc., priority 2015, dated 2018).

What follows are compounds tested against DLK (Homo sapiens (Human), UniProt Q12852) (assay: DLK TR-FRET Inhibition Assay). Settings: N-terminally GST-tagged DLK (catalytic domain amino acid 1-520), MKK4 K131M substrate, 30 μM ATP; read-out: DLK HTRF Ki.
Format: biochemical
Method in brief: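 GST-tagged DLK catalytic domain (aa 1-520, 5 nM) phosphorylates 40 nM HIS-tagged MKK4 K131M with 30 μM ATP, pH 7.5, 60 min at ambient temperature; compounds 1:3 serial from 20 uM. Phospho-MKK4 detected by TR-FRET (Eu-cryptate anti-phospho-MKK4/D2 anti-HIS) after 3 h.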

DLK, sequence (Q12852 1-520): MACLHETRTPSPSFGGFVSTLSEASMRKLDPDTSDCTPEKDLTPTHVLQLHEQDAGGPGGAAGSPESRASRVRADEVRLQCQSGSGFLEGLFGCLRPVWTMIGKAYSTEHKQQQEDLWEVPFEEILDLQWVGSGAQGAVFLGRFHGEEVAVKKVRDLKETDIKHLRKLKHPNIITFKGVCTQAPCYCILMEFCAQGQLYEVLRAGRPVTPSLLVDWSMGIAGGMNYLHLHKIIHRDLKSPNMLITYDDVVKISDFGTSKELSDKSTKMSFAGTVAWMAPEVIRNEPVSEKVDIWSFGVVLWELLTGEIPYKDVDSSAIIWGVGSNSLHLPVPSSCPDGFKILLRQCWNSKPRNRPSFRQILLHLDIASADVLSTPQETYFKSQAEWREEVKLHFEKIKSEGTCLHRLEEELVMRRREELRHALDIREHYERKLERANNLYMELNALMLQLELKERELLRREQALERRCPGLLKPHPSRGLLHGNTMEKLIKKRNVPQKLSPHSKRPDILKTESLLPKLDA

Structure (SMILES) | Ki [nM]
CC1(C)OCCn2c1nc1c(C3(C#N)CCC3)nc(-c3cnc(N)nc3)nc12 [Example 103, 1-(2-(2-aminopyrimidin-5-yl)-6,6-dimethyl-8,9-dihydro-6H-[1,4]oxazino[4,3-e]purin-4-yl)cyclobutanecarbonitrile] | 1000
CC1(C)OCCn2c1nc1c(C3CCC3)nc(-c3cnc(N)nc3)nc12 [Example 104, 5-(4-cyclobutyl-6,6-dimethyl-8,9-dihydro-6H-[1,4]oxazino[4,3-e]purin-2-yl)pyrimidin-2-amine] | 297
CC1(C)OCCn2c1nc1c(N3CC(O)C3)nc(-c3cnc4[nH]cnc4c3)nc12 [Example 109, 1-(2-(3H-imidazo[4,5-b]pyridin-6-yl)-6,6-dimethyl-8,9-dihydro-6H-[1,4]oxazino[4,3-e]purin-4-yl)azetidin-3-ol] | 379
CC1(C)OCCn2c1nc1c(N3CC(C#N)C3)nc(-c3cnc4[nH]cc(Cl)c4c3)nc12 [Example 110, 1-(2-(3-chloro-1H-pyrrolo[2,3-b]pyridin-5-yl)-6,6-dimethyl-8,9-dihydro-6H-[1,4]oxazino[4,3-e]purin-4-yl)azetidine-3-carbonitrile] | 1.25
COC1CN(c2nc(-c3cnc4[nH]cnc4c3)nc3c2nc2n3CCOC2(C)C)C1 [Example 111, 2-(3H-imidazo[4,5-b]pyridin-6-yl)-4-(3-methoxyazetidin-1-yl)-6,6-dimethyl-8,9-dihydro-6H-[1,4]oxazino[4,3-e]purine] | 885
CC1(C)OCCn2c1nc1c(N3CC(C#N)C3)nc(-c3cnc4[nH]cnc4c3)nc12 [Example 112, 1-(2-(3H-imidazo[4,5-b]pyridin-6-yl)-6,6-dimethyl-8,9-dihydro-6H-[1,4]oxazino[4,3-e]purin-4-yl)azetidine-3-carbonitrile] | 458
Cn1cc(-c2nc(-c3cnc(N)nc3)nc3c2nc2n3CCOC2(C)C)cn1 [Example 113, 5-(6,6-dimethyl-4-(1-methyl-1H-pyrazol-4-yl)-8,9-dihydro-6H-[1,4]oxazino[4,3-e]purin-2-yl)pyrimidin-2-amine] | 521
Nc1ncc(-c2nc(N3CC4CC3C4)c3nc4n(c3n2)CCOC42CCC2)cn1 [Example 114, 5-(4-(2-azabicyclo[2.1.1]hexan-2-yl)-8,9-dihydrospiro[[1,4]oxazino[4,3-e]purine-6,1′-cyclobutan]-2-yl)pyrimidin-2-amine] | 52.1
Nc1ncc(-c2nc(C3CC3)c3nc4n(c3n2)CCOC42CCC2)cn1 [Example 115, 5-(4-cyclopropyl-8,9-dihydrospiro[[1,4]oxazino[4,3-e]purine-6,1′-cyclobutan]-2-yl)pyrimidin-2-amine] | 226
CC1(C)OCCn2c1nc1c(N3CC4CC3C4)nc(-c3cnc(N)nc3)cc12 [Example 116, 5-(9-(2-azabicyclo[2.1.1]hexan-2-yl)-1,1-dimethyl-3,4-dihydro-1H-pyrido[3′,4′:4,5]imidazo[2,1-c][1,4]oxazin-7-yl)pyrimidin-2-amine] | 21.3
CCN(c1nc(-c2cnc(N)nc2)nc2c1nc1n2CCOC1(C)C)C1CC1 [Example 117] | 0.39
CC1(C)OCCn2c1nc1c(N3CC4CC3C4)nc(-c3cnc(N)cn3)cc12 [Example 118, 5-(9-(2-azabicyclo[2.1.1]hexan-2-yl)-1,1-dimethyl-3,4-dihydro-1H-pyrido[3′,4′:4,5]imidazo[2,1-c][1,4]oxazin-7-yl)pyrazin-2-amine] | 1200
CC1(C)OCCn2c1nc1c(C3CC3)nc(-c3cnc(N)c(OC(F)F)c3)nc12 [Example 119, 5-(4-cyclopropyl-6,6-dimethyl-8,9-dihydro-6H-[1,4]oxazino[4,3-e]purin-2-yl)-3-(difluoromethoxy)pyridin-2-amine] | 34.3
CC1(C)OCCn2c1nc1c(C3CC3)nc(-c3cnc(N)nc3)cc12 [Example 120] | 359
Cc1c[nH]c2ncc(-c3nc(C4CC4)c4nc5n(c4n3)CCOC5(C)C)cc12 [Example 121] | 5.48
CC1(C)OCCn2c1nc1c(C3CC3)nc(-c3cnc(N)nc3)nc12 [Example 122] | 307
